Where two headings read alike, the source gives them in different places.
What was measured:
[1] = Solubility of virginiamycin in several solvents (applicant's determination); type: physicochemical
Description: The solubility of virginiamycin in several solvents were determined. Each of these solvents can be useful in solubilized organic liquid comprising antimicrobial material, an emulsion of the same in water, or in both. […] Such a solution is stable, pumpable, and useful not only for treatments of ethanol-producing facilities but for a number of other uses where virginiamycin is used.

[2] = Rate of dissolution of powdered virginiamycin in stirred water; type: physicochemical; settings: 0.1 gram of 5.2 to 10 micron average particle size powder in 4 liters of water, continuously stirred
From the text: The solubility of monensin, virginiamycin, and similar pristinamycin-type antimicrobial agents and polyether ionophore-type antimicrobial agents in water is very low. Much more important, however, is the rate of dissolution of small granular pristinamycin-type antimicrobial agents and polyether ionophore-type antimicrobial agents in water. A 0.1 gram sample of a 5.2 to 10 micron average particle size virginiamycin was placed in a beaker with 4 liters of water, and the composition was continuously stirred. The presence of undissolved crystals was very evident.

[3] = test system: consortium of 6 Lactobacilli spp cultures; assay: Corn mash fermentation without yeast, inoculated with Lactobacillus consortium, well-mixed or poorly-mixed fermentors; type: cell-based, Lactobacillus sp
From the text: The purpose of this experiment is to determine the efficacy of virginiamycin in three forms (DMSO-solubilized virginiamycin, Belgium powdered virginiamycin, and Brazilian powdered virginiamycin) in real corn mash fermentations against a consortium of Lactobacillus sp bacteria. No yeasts will be added. The efficacy of these forms of virginiamycin will be further tested in fermentors that will be properly (continuously) mixed and in fermentors that have improper mixing—simulating more closely the fermentor mixing conditions seen in field ethanol plants.
The first step in testing was the preparation of corn mash (i.e., Gelatinization, Liquefaction, and Saccharification). […]
The mash temperature was then decreased to 60° C. at which point 2 L water and 200 ml G-Zyme™ 480 Ethanol glucoamylase (available from Genencor, Rochester, N.Y.) were added. […] No bacterial contamination was detected in any test incubated mashes.
For each 7.6 L sterile container of mash, a 60 g aliquot was removed and divided into two 30 g sub-samples within 50 ml centrifuge tubes. […] The specific gravity of each subsample was then determined using a digital density meter (DMA-45; Anton Paar KG, Graz, Austria) which was temperature regulated to 4° C. If the readings on the density meter were off-scale, then a precise dilution of the subsamples were done and then re-read in the density meter. […]

[4] = cited from earlier work
[5] = solvent: 50% NMP/50% Ethyl lactate

Substance: virginiamycin
- Concentration that can be dissolved ([1]; ethanol with water, at least 75% by weight ethanol (balance water)): ~70000 µg/mL
- Virginiamycin solubility in grams per liter of solvent ([1]; solvent: 2-ethyl hexyl lactate): 24 grams per liter
- Virginiamycin solubility in grams per liter of solvent ([1]; solvent: 2-ethyl hexyl lactate, listed as Virginiamycin): ˜24 grams per liter
- Virginiamycin solubility in grams per liter of solvent ([1]; solvent: 50% NMP/50% DMSO): ˜335 grams per liter
- Gel formation of virginiamycin solution [1, 5]: forms a hard gel at 280
- Virginiamycin solubility in grams per liter of solvent [1, 5]: <200 grams per liter
- Virginiamycin solubility in grams per liter of solvent ([1]; solvent: 70% ethanol/30% water): ˜70 grams per liter
- Virginiamycin solubility in grams per liter of solvent ([1]; solvent: Dimethylsulfoxide (DMSO)): ˜270 grams per liter
- Virginiamycin solubility in grams per liter of solvent ([1]; solvent: Ethyl lactate): about 92 grams per liter
- Virginiamycin solubility in grams per liter of solvent ([1]; solvent: Ethyl lactate, listed as Virginiamycin): ˜92 grams per liter
- Virginiamycin solubility in grams per liter of solvent ([1]; solvent: Methyl soyate ester): <1 gram per liter
- Virginiamycin solubility in grams per liter of solvent ([1]; solvent: N,N-dimethylcapramide): ˜70 grams per liter
- Virginiamycin solubility in grams per liter of solvent ([1]; solvent: N-methylpyrrolidone (NMP)): ˜260 grams per liter
- Amount of virginiamycin dissolved per liter ([1]; solvent: NMP, over a short period of time): about 290 grams per liter
- Virginiamycin solubility in grams per liter of solvent ([1]; solvent: tetrahydrofurfuryl alcohol): <160 grams per liter
- Time until only a few crystals remained visible (dissolution) [2]: on the order of an hour
- Lactobacilli killed ([3]; pre-solubilized agent, within 6 hours): at least 90%
- Lactobacillus count ([3]; well mixed fermentors (150 RPM), 1 ppm virginiamycin, inoculum 5E5 CFU/ml, up to 48 h): ≤ 1 E6 CFU/ml
- Solubility (literature data, "virginiamycin-type" compounds) ([4]; solvent: 1% ethanol in water): 0.002 mg/mL
- Solubility (literature data, "virginiamycin-type" compounds) ([4]; solvent: DMSO): > 100 mg/mL
- Solubility (literature data, "virginiamycin-type" compounds) ([4]; solvent: acetone, disproportionate solubilities for Type A and Type B): ~190 mg/mL
- Solubility (literature data, "virginiamycin-type" compounds) ([4]; solvent: amylacetate): > 4 mg/mL
- Solubility (literature data, "virginiamycin-type" compounds) ([4]; solvent: benzene): > 3 mg/mL
- Solubility (literature data, "virginiamycin-type" compounds) ([4]; solvent: butanol): > 10 mg/mL
- Solubility (literature data, "virginiamycin-type" compounds) ([4]; solvent: carbon tetrachloride): 0.02 mg/mL
- Solubility (literature data, "virginiamycin-type" compounds) ([4]; solvent: chloroform): 150 mg/mL
- Solubility (literature data, "virginiamycin-type" compounds) ([4]; solvent: dimethylformamide): 200 mg/mL
- Virginiamycin that can be dissolved (literature data) ([4]; solvent: dimethylformamide): 200 grams
- Virginiamycin that can be dissolved (literature data) ([4]; solvent: dimethylsulfoxide): 200 grams
- Solubility (literature data, "virginiamycin-type" compounds) ([4]; solvent: dioxane): 130 mg/mL
- Solubility (literature data, "virginiamycin-type" compounds) ([4]; solvent: ethanol): 70 mg/mL
- Solubility (literature data, "virginiamycin-type" compounds) ([4]; solvent: ether, disproportionate solubilities for Type A and Type B): 11 mg/mL
- Solubility (literature data, "virginiamycin-type" compounds) ([4]; solvent: ethyl acetate, disproportionate solubilities for Type A and Type B): ~205 mg/mL
- Solubility (literature data, "virginiamycin-type" compounds) ([4]; solvent: hexane): 0.2 mg/mL
- Solubility (literature data, "virginiamycin-type" compounds) ([4]; solvent: isopropanol): > 10 mg/mL
- Solubility (literature data, "virginiamycin-type" compounds) ([4]; solvent: methanol): 25 mg/mL
- Solubility (literature data, "virginiamycin-type" compounds) ([4]; solvent: methylethylketone): 35 mg/mL
- Solubility (literature data, "virginiamycin-type" compounds) ([4]; solvent: toluene, disproportionate solubilities for Type A and Type B): 82 mg/mL
- Solubility (literature data, "virginiamycin-type" compounds) ([4]; solvent: water): 0.0002 mg/mL
- Solubility in water ([4]; water, background statement): 0.0001 grams/l
